{"source": "the pKa sets of Baltruschat and Czodrowski (2020)", "data": [{"details": "acidic group", "values": [{"smiles": "CC[NH+](CC)Cc1cc(Cl)ccc1O", "pKa": 8.11}, {"smiles": "Cc1ccc2ccc(O)cc2c1", "pKa": 9.52}, {"smiles": "O=C([O-])CNC(=O)CNS(=O)(=O)c1ccccc1", "pKa": 9.65}, {"smiles": "Cc1ccc(C(=O)O)o1", "pKa": 3.42}, {"smiles": "O=C1C[C@H]2C(=O)NC(=O)[C@H]2N1", "pKa": 8.15}, {"smiles": "NC(=O)CS", "pKa": 8.22}, {"smiles": "C/C(=C\\Cl)C(=O)O", "pKa": 4.03}, {"smiles": "N#CC(C#N)Cc1ccc([N+](=O)[O-])cc1", "pKa": 10.9}, {"smiles": "O=P([O-])(O)C([NH2+]Cc1ccccn1)c1ccccc1O", "note": "(stereo not drawn)", "pKa": 5.15}, {"smiles": "CCCCCC/C=N/O", "pKa": 11.6}, {"smiles": "Oc1ccc(-c2ccc(O)cc2)cc1", "pKa": 9.4}, {"smiles": "Cc1ccc(C(=O)[O-])c(O)c1", "pKa": 13.8}, {"smiles": "CCCCCCP(=O)(O)CCCCCC", "pKa": 3.24}, {"smiles": "Oc1ccc2cnccc2c1", "pKa": 9.15}, {"smiles": "O=C([O-])c1ccc(O)cc1", "pKa": 9.35}, {"smiles": "Cc1cc2nc[nH]c2cc1C", "pKa": 12.5}, {"smiles": "O=C1CCc2cc(I)ccc2C1", "pKa": 12.4}, {"smiles": "Cc1ccc([Se](=O)O)cc1", "pKa": 4.88}, {"smiles": "COc1ccc(C(=O)O[C@H]2O[C@@H](C(=O)O)[C@H](O)[C@@H](O)[C@@H]2O)cc1OC", "pKa": 3.47}, {"smiles": "C[C@H](C1CC1C(=O)O)[C@H]1CC[C@H]2[C@@H]3[C@@H](O)C[C@@H]4C[C@H](O)CC[C@]4(C)[C@H]3CC[C@]12C", "note": "(stereo partly drawn)", "pKa": 5.01}, {"smiles": "CC1=NS(=O)(=O)c2cnccc2N1", "pKa": 7.6}, {"smiles": "O=C(O)[C@H]1C[C@@H]1c1ccc([N+](=O)[O-])cc1", "pKa": 4.45}, {"smiles": "O=C(O)CS", "pKa": 3.38}, {"smiles": "C[NH+]1CCC(n2nc(-c3ccccc3)c(Cc3ccccc3)c2O)CC1", "pKa": 6.73}, {"smiles": "O=C(O)C(c1ccc(-c2ccccc2)cc1)C1(O)CCCC1", "note": "(stereo not drawn)", "pKa": 3.65}, {"smiles": "Cc1cccc(C[N+](=O)[O-])c1", "pKa": 6.97}, {"smiles": "Cc1ccc(S(=O)O)cc1", "pKa": 1.82}, {"smiles": "O=C(O)c1cccc(Br)c1", "pKa": 3.79}, {"smiles": "C[NH+]1C[C@@H](C(=O)O)C[C@@]2(O)c3cccc4[nH]cc(c34)C[C@@H]12", "pKa": 3.38}, {"smiles": "Nc1cc2ccccc2cc1O", "pKa": 9.35}, {"smiles": "CC(C)c1cccc(C(=O)O)c1", "pKa": 4.27}, {"smiles": "CCCCCc1c(-c2ccccc2)n[nH]c1O", "pKa": 8.4}, {"smiles": "ONc1ccc(O)cc1", "pKa": 9.83}, {"smiles": "COc1ccc2cc(O)ccc2c1", "pKa": 9.64}, {"smiles": "CC(Br)C(=O)O", "note": "(stereo not drawn)", "pKa": 2.97}, {"smiles": "O=P([O-])([O-])C([NH2+]Cc1cccnc1)c1ccccc1O", "note": "(stereo not drawn)", "pKa": 10.2}, {"smiles": "COc1ccccc1C(=O)O", "pKa": 4.05}, {"smiles": "CC(=O)C(Cc1ccccc1)C(C)=O", "pKa": 10.5}, {"smiles": "C[NH+](C)Cc1cc(C(C)(C)C)cc(C[NH+](C)C)c1O", "pKa": 6.3}, {"smiles": "O=C(O)Cn1ncnn1", "pKa": 2.12}, {"smiles": "CCC1C(=O)COC1=O", "note": "(stereo not drawn)", "pKa": 4.29}, {"smiles": "COc1ccc(NC(C)=S)cc1", "pKa": 12}, {"smiles": "C[NH+](C)Cc1cc(-c2ccccc2)cc(C[NH+](C)C)c1O", "pKa": 5.65}, {"smiles": "O=C(O)C(=O)c1ccccc1", "pKa": 1.22}, {"smiles": "[NH3+][C@H]1CC[C@@H](C(=O)O)CC1", "pKa": 4.6}, {"smiles": "C/C(=C/Cl)C(=O)O", "pKa": 3.05}, {"smiles": "S=C(Nc1ccc(Br)cc1)c1ccc(Cl)cc1", "pKa": 10.2}, {"smiles": "CC(=O)Nc1ccc(O)cc1", "pKa": 9.5}, {"smiles": "O=C(O)[C@@H]1CC[C@H](C(=O)[O-])[Se]1", "pKa": 4.55}, {"smiles": "C=C1CC1C[C@H]([NH3+])C(=O)O", "note": "(stereo partly drawn)", "pKa": 2.4}, {"smiles": "O=C1CCCC2CCCC(=O)C12", "note": "(stereo not drawn)", "pKa": 11.1}, {"smiles": "C[Si](C)(C)O[Si](C)(C)CCCC(=O)O", "pKa": 5.03}, {"smiles": "CCC(=O)CC(C)=O", "pKa": 9.36}, {"smiles": "O=C1/C(=N\\O)CC/C1=N\\O", "pKa": 7.95}, {"smiles": "CCS(=O)O", "pKa": 2.27}, {"smiles": "OC(O)c1ccccc1", "pKa": 12.4}, {"smiles": "N#CCCN(CCC#N)c1nnn[nH]1", "pKa": 4.85}, {"smiles": "Nc1ccc(O)cc1", "pKa": 10.1}, {"smiles": "O=C1NC(=O)c2cc([N+](=O)[O-])ccc21", "pKa": 8.68}, {"smiles": "Cc1cccc(OC(O)(CBr)c2ccccc2)c1", "note": "(stereo not drawn)", "pKa": 11.2}, {"smiles": "S=C(Nc1ccccc1)c1ccccc1", "pKa": 10.9}, {"smiles": "Cn1c[nH+]cc1C[C@H]([NH3+])C(=O)O", "pKa": 1.84}, {"smiles": "O=C(O)C1c2ccccc2Oc2ccccc21", "pKa": 3.89}, {"smiles": "C[n+]1cccc2cc(S)ccc21", "pKa": 4.12}, {"smiles": "Cc1cc(N)c2ccccc2c1O", "pKa": 10.1}, {"smiles": "O=[N+]([O-])c1n[nH]c(Oc2ccccc2)n1", "pKa": 4.2}, {"smiles": "C[Si](C)(C)CCCCC(=O)O", "pKa": 4.96}, {"smiles": "O=C(O)C(CO)[NH2+]Cc1cc([N+](=O)[O-])ccc1O", "note": "(stereo not drawn)", "pKa": 2.15}, {"smiles": "O=c1[nH]cnc2[nH]ncc12", "pKa": 9.38}, {"smiles": "O=C(O)Cn1cnnn1", "pKa": 2.27}, {"smiles": "O=c1cccc(O)cc1O", "pKa": 5.76}, {"smiles": "CC(=O)/C=C(/C)O", "pKa": 7.64}, {"smiles": "O=C(O)C1COCCO1", "note": "(stereo not drawn)", "pKa": 3.15}, {"smiles": "O=C(O)c1ccc(Br)s1", "pKa": 3.3}, {"smiles": "Cn1c([O-])nc2nc[nH]c2c1=O", "pKa": 11.9}, {"smiles": "CC1(C)SC(=O)NC1=O", "pKa": 6.64}, {"smiles": "N#CC(C#N)=C(c1ccccc1)C(C#N)C#N", "pKa": 2.3}, {"smiles": "Cc1cc(C)nc([N-]S(=O)(=O)c2ccc(O)cc2)n1", "pKa": 9.16}, {"smiles": "Nc1ccc(S(=O)(=O)Nc2cncnc2)cc1", "pKa": 6.62}, {"smiles": "O=c1cc(-c2ccc(O)cc2)ss1", "pKa": 8.27}, {"smiles": "Cc1cccc2c1C(=O)NC2=O", "pKa": 10.5}, {"smiles": "CC(=O)[n+]1ccccc1", "pKa": 5.32}, {"smiles": "Cc1ccc2nc3ccc(O)cc3nc2c1", "pKa": 7.2}, {"smiles": "CC/C=C/CC(=O)N[C@H]1C(=O)N2[C@H]1SC(C)(C)[C@H]2C(=O)O", "pKa": 2.84}, {"smiles": "C/N=C(/SC)c1ccccc1", "pKa": 6.42}, {"smiles": "S=c1[nH]cnc2nn[nH]c12", "pKa": 4.6}, {"smiles": "CCc1cc(C(C)C)c(O)cc1C", "pKa": 10.9}, {"smiles": "O=C1/C(=N/O)C=Cc2ccccc21", "pKa": 7.52}]}]}
